In general, EC50 refers to the concentration giving half of the maximal effect.

This assay concerns recombinant AMPK proteins (α1β1γ1, α2β1γ1, α1(1-335), α1(1-394) or α2(1-394)). The assay is described as follows: Scintillation Proximity Assay (AMPK activation). Conditions: effective concentration of activator for 50% of maximal enzyme activity; 2 hr at 30° C.; AMPK form not specified. The format is biochemical, human. The source says:
Recombinant human AMPK α1β1γ1, α2β1γ1 or AMPK a subunit truncations α1 (1-335), α1 (1-394) and α2(1-394) were constructed, expressed and purified as described previously (Pang, T., Zhang, Z. S., Gu, M., Qiu, B. Y., Yu, L. F., Cao, P. R., Shao, W., Su, M. B., Li, J. Y., Nan, F. J., and Li, J. (2008) or purchased from Invitrogen (San Diego, Calif., U.S.A.). Rat liver AMPK heterotrimer enzyme was obtained from Upstate (Billerica, Mass., U.S.A.).
Before the Scintillation Proximity Assay (SPA) assay, 200 nM recombinant AMPK proteins (α1β1γ1, α2β1γ1, α1(1-335), α1(1-394) or α2(1-394)) were fully phosphorylated as described previously (Pang et al., 2008). SPA reactions were performed in 96-well plates at a final volume of 50 μl containing 20 mM Tris-HCl pH 7.5, 5 mM MgCl2, 1 mM DTT, 2 μM biotin-SAMS, 2 μM ATP, 0.2 μCi/well [γ-^33P]ATP, and various amount of activator. Reactions were initiated by the addition of 50 nM recombinant AMPK proteins to the reaction solutions and incubated at 30° C. for 2 hr. After that, reactions were terminated by the addition of 40 μl stop solution containing 80 μg streptavidin-coated SPA beads per well, 50 mM EDTA, 0.1% Triton X-100 in PBS, pH 7.5 and incubated for 1 hr. Finally, a 160 μl suspension solution containing 2.4 M CsCl, 50 mM EDTA, and 0.1% Triton X-100 in PBS (pH 7.5) was added to the reaction solution to suspend SPA beads completely. SPA signals were determined with a Wallac MicroBeta plate counter (PerkinElmer) 30 min later for calculation of the amount of product formed. The amount of products formed in 2 hr was plotted against activator concentrations to determine the effective concentration of the activator (EC50) required for 50% of maximal enzyme activity.
Regarding `CN(C)CCN1CCN(CCN2C(=O)[C@]3(C[C@@H]3c3ccc(Cl)cc3)c3ccccc32)CC1` (racemic) [Example 75, (1S,2R) and (1R,2S)-2-(4-chlorophenyl)-1′-(2-(4-(2-(dimethylamino)ethyl)piperazin-1-yl)ethyl) Spiro[cyclopropane-1,3′-indolin]-2′-one], the concentration for a half-maximal effect (EC50) was 5910 nM. With `CS(=O)(=O)NC(=O)c1cccc(N2C(=O)[C@@]3(C[C@@H]3c3ccc(Cl)cc3)c3ccccc32)c1` (racemic) [Example 91, (1R,2R) and (1S,2S)-3-(2-(4-chlorophenyl)-2′-oxospiro[cyclopropane-1,3′-indoline]-1′-yl)-N-(methylsulfonyl)benzamide] the figure was 1550 nM. Take `O=C(O)c1cccc(CN2C(=O)[C@]3(C[C@H]3c3ccc(Cl)cc3)c3cc(F)ccc32)c1` (racemic) [Example 23, (1S,2S) and (1R,2R)-3-((2-(4-chlorophenyl)-5′-fluoro-2′-oxospiro[cyclopropane-1,3′-indoline]-1′-yl)methyl)benzoic acid]: the EC50 was 1660 nM. With `COc1cccc([C@H]2C[C@]23C(=O)N(Cc2cccc(C(=O)O)c2)c2ccccc23)c1` (racemic) [Example 18, (1S,2R) and (1R,2S)-3-((2-(3-methoxyphenyl)-2′-oxospiro[cyclopropane-1,3′-indoline]-1′-yl)methyl)benzoic acid] the figure was 1660 nM; with `O=C(O)c1cccc(CN2C(=O)[C@@]3(C[C@@H]3c3ccc(Cl)cc3)c3ccccc32)c1` (racemic) [Example 2, (1R,2R) and (1S,2S)-3-((2-(4-chlorophenyl)-2′-oxospiro[cyclopropane-1,3′-indoline]-1′-yl)methyl)benzoic acid], 960 nM. With `O=C(O)c1cccc(N2C(=O)[C@]3(C[C@@H]3c3ccc(Cl)cc3)c3ccccc32)c1` (racemic) [Example 83, (1S,2R) and (1R,2S)-3-(2-(4-chlorophenyl)-2′-oxospiro[cyclopropane-1,3′-indoline]-1′-yl)benzoic acid] the figure was 2590 nM; with `O=C(O)c1cccc(CN2C(=O)[C@]3(C[C@@H]3c3ccccc3F)c3ccccc32)c1` (mixture of isomers) [Example 8, (1S,2R) and (1R,2S)-3-((2-(2-fluorophenyl)-2′-oxospiro[cyclopropane-1,3′-indoline]-1′-yl)methyl)benzoic acid], 2770 nM. Regarding `CN1CCN(C(=O)c2cccc(N3C(=O)[C@]4(C[C@@H]4c4ccc(Cl)cc4)c4ccccc43)c2)CC1` (racemic) [Example 89, (1S,2R) and (1R,2S)-2-(4-chlorophenyl)-1′-(3-(4-methylpiperazine-1-carbonyl)phenyl)spiro[cyclopropane-1,3′-indolin]-2′-one], the EC50 stood at 1400 nM.

Consider `O=C(O)c1cccc(CN2C(=O)[C@@]3(C[C@@H]3c3ccc(Cl)cc3)c3cc(Br)ccc32)c1` (racemic) [Example 15, (1R,2R) and (1S,2S)-3-((5′-bromo-2-(4-chlorophenyl)-2′-oxospiro[cyclopropane-1,3′-indoline]-1′-yl)methyl)benzoic acid], for which the EC50 is 2480 nM.

As for `O=C(O)c1cccc(CN2C(=O)[C@]3(C[C@@H]3c3ccc(Cl)cc3)c3cc(F)ccc32)c1` (racemic) [Example 22, (1S,2R) and (1R,2S)-3-((2-(4-chlorophenyl)-5′-fluoro-2′-oxospiro[cyclopropane-1,3′-indoline]-1′-yl)methyl)benzoic acid], the EC50 was found to be 11200 nM. With `O=C(c1cccc(CN2C(=O)[C@]3(C[C@@H]3c3ccc(Cl)cc3)c3ccccc32)c1)N1CCNCC1` (racemic) [Example 62, (1S,2R) and (1R,2S)-2-(4-chlorophenyl)-1′-(3-(piperazine-1-carbonyl)benzyl)spiro[cyclopropane-1,3′-indolin]-2′-one] the figure was 6570 nM; with `COc1cccc([C@@H]2C[C@]23C(=O)N(Cc2cccc(C(=O)O)c2)c2ccccc23)c1` (racemic) [Example 19, (1S,2S) and (1R,2R)-3-((2-(3-methoxyphenyl)-2′-oxospiro[cyclopropane-1,3′-indoline]-1′-yl)methyl)benzoic acid], 1420 nM. With `O=C(O)c1cccc(CN2C(=O)[C@]3(C[C@H]3c3ccccc3C(F)(F)F)c3ccccc32)c1` (racemic) [Example 12, (1S,2S) and (1R,2R)-3-((2′-oxo-2-(2-(trifluoromethyl)phenyl)-spiro[cyclopropane-1,3′-indoline]-1′-yl)methyl)benzoic acid] the figure was 2360 nM; with `CS(=O)(=O)c1ccc([C@H]2C[C@]23C(=O)N(Cc2cccc(C(=O)O)c2)c2ccccc23)cc1` (racemic) [Example 7, (1S,2R) and (1R,2S)-3-((2-(4-(methylsulfonyl)phenyl)-2′-oxospiro[cyclopropane-1,3′-indoline]-1′-yl)methyl)benzoic acid], 10800 nM; with “(1R,2R) and (1S,2S)-((2-(4-(methylsulfonyl)phenyl)-2′-oxospiro[cyclopropane-1,3′-indoline]-1′-yl)methyl)benzoic acid [Example 4]”, 2200 nM. With `CN(C)[C@H]1CCN(CCN2C(=O)[C@]3(C[C@@H]3c3ccc(Cl)cc3)c3ccccc32)C1` (mixture of isomers) [Example 76, (1S,2R)-2-(4-chlorophenyl)-1′-(2-((S)-3-(dimethylamino)pyrrolidin-1-yl)ethyl)spiro[cyclopropane-1,3′-indolin]-2′-one and (1R,2S)-2-(4-chlorophenyl)-1′-(2-((S)-3-(dimethylamino)pyrrolidin-1-yl)ethyl)spiro[cyclopropane-1,3′-indolin]-2′-one] the figure was 1090 nM; with `O=C(O)c1cccc(CN2C(=O)[C@]3(C[C@@H]3c3cccc(Cl)c3)c3ccccc32)c1` (racemic) [Example 3, (1S,2R) and (1R,2S)-3-((2-(3-chlorophenyl)-2′-oxospiro[cyclopropane-1,3′-indoline]-1′-yl)methyl)benzoic acid], 2980 nM.

As to `CC(C)N1CCN(C(=O)c2cccc(CN3C(=O)[C@]4(C[C@@H]4c4ccc(Cl)cc4)c4ccccc43)c2)CC1` (racemic) [Example 65, (1S,2R) and (1R,2S)-2-(4-chlorophenyl)-1′-(3-(4-isopropylpiperazine-1-carbonyl)benzyl)spiro[cyclopropane-1,3′-indolin]-2′-one], the EC50 worked out at 1710 nM. With `O=C1N(Cc2ccncc2)c2ccccc2[C@]12C[C@H]2c1ccc(Cl)cc1` (racemic) [Example 78, (1R,2S) and (1S,2R)-2-(4-chlorophenyl)-1′-(pyridin-4-ylmethyl)spiro[cyclopropane-1,3′-indolin]-2′-one] the figure was 4200 nM. With `O=C(c1cccc(N2C(=O)[C@@]3(C[C@H]3c3ccc(Cl)cc3)c3ccccc32)c1)N1CCOCC1` (racemic) [Example 88, (1R,2S) and (1S,2R)-2-(4-chlorophenyl)-1′-(3-(morpholine-4-carbonyl)phenyl)spiro [cyclopropane-1,3′-indolin]-2′-one] the figure was 2560 nM; with `O=C(O)c1cccc(CN2C(=O)[C@]3(C[C@@H]3c3ccc(Cl)cc3)c3cc(Br)ccc32)c1` (racemic) [Example 16, (1S,2R) and (1R,2S)-3-((5′-bromo-2-(4-chlorophenyl)-2′-oxospiro[cyclopropane-1,3′-indoline]-1′-yl)methyl)benzoic acid], 2720 nM.
